Experimental data: ChEMBL document CHEMBL5696439 (Cancer Res, 2010)
Calls of active or inactive are those of the source. No cut-off for these calls is given here.

Key:
[1] = biological target: RAC-alpha serine/threonine-protein kinase (Homo sapiens) (UniProt P31749); experiment: Inhibition of recombinant human full-length His-tagged AKT1 expressed in insect cells at 2 uM using Ser/Thr 06 as substrate measured after 1 hr by Z'-LYTE assay relative to control; conditions: Insect cell
[2] = biological target: RAC-beta serine/threonine-protein kinase (Homo sapiens) (UniProt P31751); experiment: Inhibition of recombinant human full-length His-tagged AKT2 expressed in insect cells at 2 uM using Ser/Thr 06 as substrate measured after 1 hr by Z'-LYTE assay relative to control; conditions: Insect cell
[3] = biological target: RAC-gamma serine/threonine-protein kinase (Homo sapiens) (UniProt Q9Y243); experiment: Inhibition of recombinant human full-length His-tagged AKT3 expressed in insect cells at 2 uM using Ser/Thr 06 as substrate measured after 1 hr by Z'-LYTE assay relative to control; conditions: Insect cell
[4] = biological target: Cyclin-dependent kinase 5/CDK5 activator 1 (Homo sapiens) (UniProt Q00535+Q15078); experiment: Inhibition of recombinant human full-length GST/His-tagged CDK5/p25 expressed in insect cells at 2 uM using Ser/Thr 12 as substrate measured after 1 hr by Z'-LYTE assay relative to control; conditions: Insect cell
[5] = biological target: Ephrin type-A receptor 3 (Homo sapiens) (UniProt P29320); experiment: Inhibition of recombinant human His-tagged EPHA3 (568-976 residues) expressed in baculovirus expression system at 2 uM measured after 1 hr by Z'-LYTE assay relative to control
[6] = biological target: Ephrin type-A receptor 4 (Homo sapiens) (UniProt P54764); experiment: Inhibition of recombinant human GST-tagged EPHA4 (616-887 residues) expressed in insect cells at 2 uM using Tyr 02 as substrate measured after 1 hr by Z'-LYTE assay relative to control; conditions: Insect cell
[7] = biological target: Fibroblast growth factor receptor 1 (Homo sapiens) (UniProt P11362); experiment: Inhibition of recombinant human His-tagged FGFR1 (308-731 residues) expressed in baculovirus expression system at 2 uM using Tyr 04 as substrate measured after 1 hr by Z'-LYTE assay relative to control
[8] = biological target: Rhodopsin kinase GRK7 (Homo sapiens) (UniProt Q8WTQ7); experiment: Inhibition of recombinant human full-length GST-tagged GRK7 expressed in insect cells at 2 uM using Ser/Thr 16 as substrate measured after 1 hr by Z'-LYTE assay relative to control; conditions: Insect cell
[9] = biological target: Inhibitor of nuclear factor kappa-B kinase subunit beta (Homo sapiens) (UniProt O14920); experiment: Inhibition of recombinant human full-length GST-tagged IKBKB expressed in insect cells at 2 uM using Ser/Thr 05 as substrate measured after 1 hr by Z'-LYTE assay relative to control; conditions: Insect cell
[10] = biological target: Macrophage-stimulating protein receptor (Homo sapiens) (UniProt Q04912); experiment: Inhibition of recombinant human GST-tagged MST1R (983-1400 residues) expressed in insect cells at 2 uM using Tyr 06 as substrate measured after 1 hr by Z'-LYTE assay relative to control; conditions: Insect cell
[11] = biological target: Myosin light chain kinase 2, skeletal/cardiac muscle (Homo sapiens) (UniProt Q9H1R3); experiment: Inhibition of recombinant human full length GST-tagged MYLK2 expressed in insect cells at 2 uM using Ser/Thr 13 as substrate measured after 1 hr by Z'-LYTE assay relative to control; conditions: Insect cell
[12] = biological target: Platelet-derived growth factor receptor alpha (Homo sapiens) (UniProt P16234); experiment: Inhibition of recombinant human GST-tagged PDGFRA (550-1089 residues) expressed in baculovirus expression system at 2 uM using Tyr 04 as substrate measured after 1 hr by Z'-LYTE assay relative to control
[13] = biological target: cAMP-dependent protein kinase catalytic subunit PRKX (Homo sapiens) (UniProt P51817); experiment: Inhibition of recombinant human full length GST-tagged PRKX expressed in insect cells at 2 uM using Ser/Thr 01 as substrate measured after 1 hr by Z'-LYTE assay relative to control; conditions: Insect cell
[14] = biological target: Protein-tyrosine kinase 2-beta (Homo sapiens) (UniProt Q14289); experiment: Inhibition of recombinant human full length GST-tagged PTK2B expressed in insect cells at 2 uM using Tyr 01 as substrate measured after 1 hr by Z'-LYTE assay relative to control; conditions: Insect cell
[15] = biological target: Ribosomal protein S6 kinase alpha-1 (Homo sapiens) (UniProt Q15418); experiment: Inhibition of recombinant human full length His-tagged RPS6KA1 expressed in insect cells at 2 uM using Ser/Thr 06 as substrate measured after 1 hr by Z'-LYTE assay relative to control; conditions: Insect cell
[16] = biological target: Ribosomal protein S6 kinase alpha-3 (Homo sapiens) (UniProt P51812); experiment: Inhibition of recombinant human full length His-tagged RPS6KA3 expressed in baculovirus expression system at 2 uM using Ser/Thr 06 as substrate measured after 1 hr by Z'-LYTE assay relative to control
[17] = biological target: Serine/threonine-protein kinase TAO2 (Homo sapiens) (UniProt Q9UL54); experiment: Inhibition of recombinant human GST-tagged TAOK2 (1-314 residues) expressed in insect cells at 2 uM using Ser/Thr 07 as substrate measured after 1 hr by Z'-LYTE assay relative to control; conditions: Insect cell
[18] = biological target: Angiopoietin-1 receptor (Homo sapiens) (UniProt Q02763); experiment: Inhibition of recombinant human GST-tagged TEK (817-1101 residues) expressed in insect cells at 2 uM using […] as substrate measured after 1 hr by Z'-LYTE assay relative to control; conditions: Insect cell
MDA-MB-361 [19] = experiment: Induction of apoptosis in human MDA-MB-361 cells assessed as induction in cell death at 30 nmol/L incubated for 48 hrs by FACS analysis relative to control; type: functional
MDA-MB-361 [20] = experiment: Induction of apoptosis in human MDA-MB-361 cells assessed as induction in cell death at 3 micromol/L incubated for 48 hrs by FACS analysis relative to control; type: functional; conditions: dose 3 µmol/L, at 3 µM
A498 [21] = experiment: Antiproliferative activity against human A498 cells assessed as reduction in cell size at 1 micromol/L incubated for 48 hrs by Flow cytometry analysis relative to control; type: functional; design: scale not given: the % may be the effect or the level left; conditions: dose 1 µmol/L, at 1 µM
PC3MM2 = experiment: Antitumor activity against human PC3MM2 cells xenografted in female nude mouse model assessed as suppression in P-S6K at T389 level at 50 mg/kg, iv administered once a week and measured at least 8 hrs by immunoblot analysis; type: functional, organism-based
MDA-MB-361 [22] = experiment: Antitumor activity against human MDA-MB-361 cells xenografted in female nude mouse model assessed as reduction in P-AKT at T308 level at 50 mg/kg, iv administered once a week and measured at least 8 hrs by immunoblot analysis; type: functional, organism-based
MDA-MB-361 [23] = experiment: Antitumor activity against human MDA-MB-361 cells xenografted in female nude mouse model assessed as suppression in P-S6 level at 6 to 12 mg/kg, po qd administered as 5 days on/2 days off regimen for 4 cycles by immunoblot analysis; type: functional, organism-based; conditions: dose 6-12 mg/kg, time 28.0 day
A498 [24] = experiment: Antitumor activity against human A498 cells xenografted in female nude mouse model assessed as tumor regression at 50 mg/kg, po qd administered as 5 days on/2 days off regimen for 4 cycles; type: functional, organism-based; conditions: time 28.0 day

Chain of Angiopoietin-1 receptor (Homo sapiens) (Q02763 whole entry, the tested form may be a part): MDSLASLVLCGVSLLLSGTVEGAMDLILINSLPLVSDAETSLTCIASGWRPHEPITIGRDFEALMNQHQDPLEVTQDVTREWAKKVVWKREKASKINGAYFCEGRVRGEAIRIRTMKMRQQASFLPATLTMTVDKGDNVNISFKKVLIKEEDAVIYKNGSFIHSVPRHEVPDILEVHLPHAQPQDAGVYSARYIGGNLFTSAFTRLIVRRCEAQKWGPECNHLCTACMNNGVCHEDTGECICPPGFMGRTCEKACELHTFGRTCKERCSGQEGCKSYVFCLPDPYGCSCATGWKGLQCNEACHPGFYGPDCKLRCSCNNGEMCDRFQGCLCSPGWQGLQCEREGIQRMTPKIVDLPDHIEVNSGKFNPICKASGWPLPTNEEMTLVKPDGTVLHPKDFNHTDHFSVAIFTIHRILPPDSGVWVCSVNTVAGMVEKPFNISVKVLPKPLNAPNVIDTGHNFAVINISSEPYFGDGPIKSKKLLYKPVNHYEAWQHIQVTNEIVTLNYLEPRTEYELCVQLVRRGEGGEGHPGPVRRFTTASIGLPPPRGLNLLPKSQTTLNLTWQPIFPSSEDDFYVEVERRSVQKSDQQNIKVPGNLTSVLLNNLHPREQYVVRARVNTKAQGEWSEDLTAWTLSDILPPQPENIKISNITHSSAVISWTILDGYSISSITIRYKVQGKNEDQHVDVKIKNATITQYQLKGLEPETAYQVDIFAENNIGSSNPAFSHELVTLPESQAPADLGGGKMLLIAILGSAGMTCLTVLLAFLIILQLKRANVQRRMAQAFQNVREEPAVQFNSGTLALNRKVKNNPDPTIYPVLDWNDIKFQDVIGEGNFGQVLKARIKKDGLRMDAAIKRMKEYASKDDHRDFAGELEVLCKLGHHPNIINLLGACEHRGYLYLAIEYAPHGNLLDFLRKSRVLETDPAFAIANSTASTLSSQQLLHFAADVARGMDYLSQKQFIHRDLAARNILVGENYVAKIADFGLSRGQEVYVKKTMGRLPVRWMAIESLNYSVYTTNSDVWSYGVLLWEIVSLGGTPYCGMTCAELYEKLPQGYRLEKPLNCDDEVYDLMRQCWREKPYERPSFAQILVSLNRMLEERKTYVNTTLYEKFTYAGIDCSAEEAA
Chain of Ribosomal protein S6 kinase alpha-1 (Homo sapiens) (Q15418 whole entry): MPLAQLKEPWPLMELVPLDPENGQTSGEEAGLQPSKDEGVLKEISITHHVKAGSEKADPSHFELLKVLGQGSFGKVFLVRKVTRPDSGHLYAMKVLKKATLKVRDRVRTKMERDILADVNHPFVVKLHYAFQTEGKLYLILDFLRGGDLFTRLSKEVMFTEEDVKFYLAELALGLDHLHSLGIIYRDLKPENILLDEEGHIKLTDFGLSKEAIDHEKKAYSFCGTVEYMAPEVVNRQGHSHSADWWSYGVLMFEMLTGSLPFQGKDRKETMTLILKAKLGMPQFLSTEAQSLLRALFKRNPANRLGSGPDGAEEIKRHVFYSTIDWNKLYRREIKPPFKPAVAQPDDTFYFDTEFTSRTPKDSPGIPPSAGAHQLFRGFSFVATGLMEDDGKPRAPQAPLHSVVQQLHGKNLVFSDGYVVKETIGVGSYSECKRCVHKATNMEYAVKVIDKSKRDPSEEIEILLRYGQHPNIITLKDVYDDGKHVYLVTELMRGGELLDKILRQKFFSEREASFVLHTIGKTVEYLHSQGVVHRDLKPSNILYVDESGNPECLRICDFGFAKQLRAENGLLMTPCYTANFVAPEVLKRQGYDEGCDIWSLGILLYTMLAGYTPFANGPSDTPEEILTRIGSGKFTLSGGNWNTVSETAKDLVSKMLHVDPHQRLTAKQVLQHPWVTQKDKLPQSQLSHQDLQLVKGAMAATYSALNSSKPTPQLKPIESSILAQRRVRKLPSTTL
Chain of Rhodopsin kinase GRK7 (Homo sapiens) (Q8WTQ7 whole entry): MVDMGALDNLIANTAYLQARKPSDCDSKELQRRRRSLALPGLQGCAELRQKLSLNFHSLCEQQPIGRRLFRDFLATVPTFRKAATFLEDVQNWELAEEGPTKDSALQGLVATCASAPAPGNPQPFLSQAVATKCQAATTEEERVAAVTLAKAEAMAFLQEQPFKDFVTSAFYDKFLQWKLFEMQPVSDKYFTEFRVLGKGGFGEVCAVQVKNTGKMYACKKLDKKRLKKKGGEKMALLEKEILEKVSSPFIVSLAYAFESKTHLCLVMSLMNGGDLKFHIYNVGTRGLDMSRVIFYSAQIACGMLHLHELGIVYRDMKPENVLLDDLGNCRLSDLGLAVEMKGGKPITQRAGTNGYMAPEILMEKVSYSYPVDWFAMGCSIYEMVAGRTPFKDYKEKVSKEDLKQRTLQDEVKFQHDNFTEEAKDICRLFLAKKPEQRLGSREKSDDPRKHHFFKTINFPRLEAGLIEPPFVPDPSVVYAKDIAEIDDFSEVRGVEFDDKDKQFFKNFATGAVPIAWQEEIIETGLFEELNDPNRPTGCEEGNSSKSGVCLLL
Chain of Myosin light chain kinase 2, skeletal/cardiac muscle (Homo sapiens) (Q9H1R3 whole entry, the tested form may be a part): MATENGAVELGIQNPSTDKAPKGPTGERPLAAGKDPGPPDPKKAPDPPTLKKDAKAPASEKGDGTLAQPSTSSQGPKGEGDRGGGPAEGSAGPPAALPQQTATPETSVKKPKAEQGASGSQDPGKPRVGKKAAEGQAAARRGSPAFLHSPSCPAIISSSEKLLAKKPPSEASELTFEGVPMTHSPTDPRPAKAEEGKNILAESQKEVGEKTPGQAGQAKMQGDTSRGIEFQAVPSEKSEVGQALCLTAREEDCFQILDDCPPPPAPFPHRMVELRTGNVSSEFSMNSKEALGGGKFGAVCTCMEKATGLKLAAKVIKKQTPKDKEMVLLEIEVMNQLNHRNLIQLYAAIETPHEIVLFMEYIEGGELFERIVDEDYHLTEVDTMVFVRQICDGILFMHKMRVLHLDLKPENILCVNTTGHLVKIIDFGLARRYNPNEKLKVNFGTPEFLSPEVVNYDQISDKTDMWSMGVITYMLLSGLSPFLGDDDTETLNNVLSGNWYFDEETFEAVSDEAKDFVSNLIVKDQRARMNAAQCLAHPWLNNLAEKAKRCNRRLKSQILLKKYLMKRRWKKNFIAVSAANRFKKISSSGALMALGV
Chain of RAC-beta serine/threonine-protein kinase (Homo sapiens) (P31751 whole entry): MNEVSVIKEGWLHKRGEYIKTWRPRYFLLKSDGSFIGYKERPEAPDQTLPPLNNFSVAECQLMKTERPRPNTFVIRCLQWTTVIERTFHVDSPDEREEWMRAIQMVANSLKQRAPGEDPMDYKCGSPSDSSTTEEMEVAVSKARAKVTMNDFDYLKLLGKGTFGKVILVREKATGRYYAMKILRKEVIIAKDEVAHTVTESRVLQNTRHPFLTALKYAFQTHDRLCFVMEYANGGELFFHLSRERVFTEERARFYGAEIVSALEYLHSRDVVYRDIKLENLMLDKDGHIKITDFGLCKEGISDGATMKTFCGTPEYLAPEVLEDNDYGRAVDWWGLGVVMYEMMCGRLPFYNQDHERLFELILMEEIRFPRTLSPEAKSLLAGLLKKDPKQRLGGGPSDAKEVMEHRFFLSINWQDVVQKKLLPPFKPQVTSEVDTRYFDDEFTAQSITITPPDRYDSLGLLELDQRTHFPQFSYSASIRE
Chain of Serine/threonine-protein kinase TAO2 (Homo sapiens) (Q9UL54 whole entry, the tested form may be a part): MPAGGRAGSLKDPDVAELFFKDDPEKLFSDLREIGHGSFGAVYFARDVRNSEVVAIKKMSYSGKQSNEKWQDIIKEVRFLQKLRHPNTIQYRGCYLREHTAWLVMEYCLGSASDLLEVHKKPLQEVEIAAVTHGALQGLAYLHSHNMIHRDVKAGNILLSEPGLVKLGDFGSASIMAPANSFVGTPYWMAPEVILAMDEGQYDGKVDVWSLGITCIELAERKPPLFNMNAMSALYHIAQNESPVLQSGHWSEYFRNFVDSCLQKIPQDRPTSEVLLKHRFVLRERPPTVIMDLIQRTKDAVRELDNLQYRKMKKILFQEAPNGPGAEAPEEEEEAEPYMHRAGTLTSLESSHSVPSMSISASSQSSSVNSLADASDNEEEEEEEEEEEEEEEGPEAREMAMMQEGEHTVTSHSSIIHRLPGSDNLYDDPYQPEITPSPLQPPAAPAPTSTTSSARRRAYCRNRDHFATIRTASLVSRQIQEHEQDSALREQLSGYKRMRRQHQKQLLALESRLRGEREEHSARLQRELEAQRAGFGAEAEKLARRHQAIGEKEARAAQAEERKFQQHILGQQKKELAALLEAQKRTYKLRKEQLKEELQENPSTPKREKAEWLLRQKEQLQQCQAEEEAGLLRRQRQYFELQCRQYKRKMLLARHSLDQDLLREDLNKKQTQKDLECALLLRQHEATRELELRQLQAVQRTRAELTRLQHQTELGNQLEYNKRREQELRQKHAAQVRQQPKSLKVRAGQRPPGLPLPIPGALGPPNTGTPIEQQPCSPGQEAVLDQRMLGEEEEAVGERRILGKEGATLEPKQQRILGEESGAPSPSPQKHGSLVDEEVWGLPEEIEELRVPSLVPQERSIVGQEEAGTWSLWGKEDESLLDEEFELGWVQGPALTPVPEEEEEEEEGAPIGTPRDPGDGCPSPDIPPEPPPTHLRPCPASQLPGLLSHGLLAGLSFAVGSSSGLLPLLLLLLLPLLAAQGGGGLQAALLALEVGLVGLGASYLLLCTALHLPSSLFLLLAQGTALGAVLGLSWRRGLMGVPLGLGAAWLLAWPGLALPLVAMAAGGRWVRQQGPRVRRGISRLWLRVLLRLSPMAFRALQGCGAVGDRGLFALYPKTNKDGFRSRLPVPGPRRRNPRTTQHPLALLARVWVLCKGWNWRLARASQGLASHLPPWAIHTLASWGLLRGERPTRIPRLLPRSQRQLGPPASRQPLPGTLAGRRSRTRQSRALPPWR

Q: `CNC(=O)Nc1ccc(-c2nc(N3CC4CCC(C3)O4)c3cnn(C4CCC5(CC4)OCCO5)c3n2)cc1` was tested. Which inhibition [1] did it give?
A: -5%

Q: What about the inhibition [2] of the same compound?
A: 5%

Q: What about the inhibition [3] of the same compound?
A: 2%

Q: And the inhibition [4]?
A: 1%

Q: What about the inhibition [5] of the same compound?
A: 4%

Q: And the inhibition [6]?
A: -1%

Q: What about the inhibition [7] of the same compound?
A: 4%

Q: What about the inhibition [8] of the same compound?
A: 7%

Q: And the inhibition [9]?
A: -5%

Q: And the inhibition [10]?
A: -1%

Q: And the inhibition [11]?
A: 8%

Q: What about the inhibition [12] of the same compound?
A: 0%

Q: What about the inhibition [13] of the same compound?
A: 5%

Q: And the inhibition [14]?
A: -3%

Q: And the inhibition [15]?
A: 4%

Q: And the inhibition [16]?
A: -2%

Q: What about the inhibition [17] of the same compound?
A: 3%

Q: What about the inhibition [18] of the same compound?
A: 10%

Q: What about the Activity (MDA-MB-361 [19]) of the same compound?
A: 13%

Q: And the Activity (MDA-MB-361 [20])?
A: 59%

Q: What about the Activity (A498 [21]) of the same compound?
A: 83%

Q: And the Activity (PC3MM2)?
A: Active

Q: What about the Activity (MDA-MB-361 [22]) of the same compound?
A: inactive

Q: And the Activity (MDA-MB-361 [23])?
A: Active

Q: And the Activity (A498 [24])?
A: Active
